US8435978B2, “Substituted sulfonamide compounds” (Gruenenthal GmbH, priority 2006, dated 2013)
Counter-ions that a name gives are not always drawn.

Key:
human B1R receptor = molecular target: T1, human B1R receptor (Homo sapiens, UniProt P46663); experiment: Functional study on the bradykinin receptor 1 (B1R), FLIPR Ca2+ assay, hB1R cells; format: cell-based; conditions: CHO-K1, test substance 10 μM, agonist Lys-Des-Arg9-bradykinin 0.5 nM, % inhibition compared with the maximum achievable inhibition, read-out: B1R Antagonism, human [10 μM] % Inhibition
T1 construct: host or cells: CHO K1 cells (Chinese hamster ovary), stably transfected
T1 sequence (P46663 1-353): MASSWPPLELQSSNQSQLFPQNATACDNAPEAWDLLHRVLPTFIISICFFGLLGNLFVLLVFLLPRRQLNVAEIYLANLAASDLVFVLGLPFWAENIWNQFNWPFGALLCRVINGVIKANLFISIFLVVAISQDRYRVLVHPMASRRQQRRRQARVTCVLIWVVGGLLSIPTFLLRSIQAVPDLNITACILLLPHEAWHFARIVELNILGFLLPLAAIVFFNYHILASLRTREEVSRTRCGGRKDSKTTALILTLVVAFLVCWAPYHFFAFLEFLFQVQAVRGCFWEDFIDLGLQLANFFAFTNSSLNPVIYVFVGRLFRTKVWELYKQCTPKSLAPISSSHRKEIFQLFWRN
Method in brief: (§1)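 CHO K1 cells stably expressing human or rat B1R, Fluo-4-loaded; test compound 10 μM added first (activation % vs agonist), then after 10 min 0.5 nM Lys-Des-Arg9-bradykinin (human) or 100 nM Des-Arg9-bradykinin (rat). Ca2+ peak fluorescence by FLIPR; % inhibition relative to maximum achievable inhibition.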

B1R receptor of the rat = molecular target: T2, B1R receptor of the rat (Rattus norvegicus, UniProt P97583); experiment: Functional study on the bradykinin receptor 1 (B1R), FLIPR Ca2+ assay, rB1R cells; format: cell-based; conditions: CHO-K1, test substance 10 μM, agonist Des-Arg9-bradykinin 100 nM, % inhibition compared with the maximum achievable inhibition, read-out: B1R Antagonism, rat [10 μM] % Inhibition
T2 construct: host or cells: CHO K1 cells (Chinese hamster ovary), stably transfected
T2 sequence (P97583 1-337): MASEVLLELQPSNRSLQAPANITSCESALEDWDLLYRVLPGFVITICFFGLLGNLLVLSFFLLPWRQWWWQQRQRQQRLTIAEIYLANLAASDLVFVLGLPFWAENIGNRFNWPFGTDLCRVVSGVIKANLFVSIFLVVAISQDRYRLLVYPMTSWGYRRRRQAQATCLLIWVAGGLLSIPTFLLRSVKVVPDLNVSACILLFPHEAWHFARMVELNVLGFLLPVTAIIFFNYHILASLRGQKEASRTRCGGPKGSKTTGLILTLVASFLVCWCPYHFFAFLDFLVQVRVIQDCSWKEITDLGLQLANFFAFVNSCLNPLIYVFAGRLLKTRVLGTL
Method in brief: as §1

Structure (SMILES) | inhibition at 10 µM (human B1R receptor) [%] | inhibition at 10 µM (B1R receptor of the rat) [%]
Cc1cccc(CC2CCCN2C(=O)COCC2CCCCN2S(=O)(=O)c2c(Cl)cccc2Cl)n1 (stereo not drawn) [Example 458, 2-((1-(2,6-dichlorophenylsulfonyl)piperidin-2-yl)methoxy)-1-(2-((6-methylpyridin-2-yl)methyl)pyrrolidin-1-yl)ethanone] | 103 | 100
Cc1cccc(Cl)c1S(=O)(=O)N1CCC[C@@H]1COCC(=O)N1CCN(C2CCN(C)CC2)CC1 [Example 152, (R)-2-((1-(2-chloro-6-methylphenylsulfonyl)pyrrolidin-2-yl)methoxy)-1-(4-(1-methylpiperidin-4-yl)piperazin-1-yl)ethanone dihydrochloride] | 100 | 90.8
CN1CCC(N2CCN(C(=O)COCC3CCCCN3S(=O)(=O)c3c(Cl)cc(Br)cc3Cl)CC2)CC1 (stereo not drawn) [Example 160, 2-((1-(4-bromo-2,6-dichlorophenylsulfonyl)piperidin-2-yl)methoxy)-1-(4-(1-methylpiperidin-4-yl)piperazin-1-yl)ethanone dihydrochloride] | 99 | 99
O=C(COCC1CCCCN1S(=O)(=O)c1c(Cl)cccc1Cl)N1CCN(CC2CCCCC2)CC1 (stereo not drawn) [Example 499, 1-(4-(cyclohexylmethyl)piperazin-1-yl)-2-((1-(2,6-dichlorophenylsulfonyl)piperidin-2-yl)methoxy)ethanone] | 103 | 101
O=C(COCC1CCCN1S(=O)(=O)c1c(Cl)cc(Cl)cc1Cl)NCc1ccc(CN2CCCCC2)cc1 (stereo not drawn) [Example 10, N-(4-piperidin-1-ylmethyl-benzyl)-2-[1-(2,4,6-trichloro-phenylsulfonyl)-pyrrolidin-2-ylmethoxy]-acetamide] | 100 | 91.8
CN1CCC(N2CCN(C(=O)COCC3CCCCN3S(=O)(=O)c3ccc(Cl)c4nonc34)CC2)CC1 (stereo not drawn) [Example 154, 2-((1-(7-chlorobenzo[c][1,2,5]oxadiazol-4-ylsulfonyl)piperidin-2-yl)methoxy)-1-(4-(1-methylpiperidin-4-yl)piperazin-1-yl)ethanone] | 83.2 | 84.4
O=C(COCC1CCCN1S(=O)(=O)c1c(Cl)cccc1Cl)N1CCN(Cc2ccc(Cl)c(Cl)c2)CC1 (stereo not drawn) [Example 357, 1-(4-(3,4-dichlorobenzyl)piperazin-1-yl)-2-((1-(2,6-dichlorophenylsulfonyl)pyrrolidin-2-yl)methoxy)ethanone] | 79.4 | 104
CN1CCN(C2CCN(C(=O)COCC3CCCN3S(=O)(=O)c3c(Cl)cc(Cl)cc3Cl)CC2)CC1 (stereo not drawn) [Example 330, 1-(4-(4-methylpiperazin-1-yl)piperidin-1-yl)-2-((1-(2,4,6-trichlorophenylsulfonyl)pyrrolidin-2-yl)methoxy)ethanone] | 104 | 100
O=C(COCC1CCCCN1S(=O)(=O)c1cccc(Br)c1)N1CCC(CCN2CCCC2)CC1 (stereo not drawn) [Example 124, 2-((1-(3-bromophenylsulfonyl)piperidin-2-yl)methoxy)-1-(4-(2-(pyrrolidin-1-yl)ethyl)piperidin-1-yl)ethanone] | 76.3 | 63.2
Cc1cc(C)c(S(=O)(=O)N2CCCCC2COCC(=O)N2CCC(N3CCN(C)CC3)CC2)c(C)c1 (stereo not drawn) [Example 231, 2-((1-(mesitylsulfonyl)piperidin-2-yl)methoxy)-1-(4-(4-methylpiperazin-1-yl)piperidin-1-yl)ethanone] | 102 | 83.3
COc1ccc(S(=O)(=O)N2Cc3ccccc3C[C@H]2COCC(=O)N2CCC(CCN3CCCC3)CC2)cc1 [Example 182, (S)-2-((2-(4-methoxyphenylsulfonyl)-1,2,3,4-tetrahydroisoquinolin-3-yl)methoxy)-1-(4-(2-(pyrrolidin-1-yl)ethyl)piperidin-1-yl)ethanone] | 91.1 | 99.7
CN1CCC(N2CCN(C(=O)COCC3CCCCN3S(=O)(=O)c3cccc(Br)c3)CC2)CC1 (stereo not drawn) [Example 121, 2-((1-(3-bromophenylsulfonyl)piperidin-2-yl)methoxy)-1-(4-(1-methylpiperidin-4-yl)piperazin-1-yl)ethanone] | 70.5 | 52.7

The next lines start with the values.

inhibition at 10 µM (human B1R receptor) [%] | inhibition at 10 µM (B1R receptor of the rat) [%] | Structure (SMILES)
99.4 | 98.6 | COc1cc(C)c(S(=O)(=O)N2CCCCC2COCC(=O)N2CCC(N3CCn4ncnc4C3)CC2)c(C)c1 (stereo not drawn) [Example 145, 1-(4-(5,6-dihydro-[1,2,4]triazolo[1,5-a]pyrazin-7(8H)-yl)piperidin-1-yl)-2-((1-(4-methoxy-2,6-dimethylphenylsulfonyl)piperidin-2-yl)methoxy)ethanone]
63.1 | 107 | COc1cc(C)c(S(=O)(=O)N2CCCCC2COCC(=O)Nc2cc(-c3ccccc3)[nH]n2)c(C)c1 (stereo not drawn) [Example 536, 2-((1-(4-methoxy-2,6-dimethylphenylsulfonyl)piperidin-2-yl)methoxy)-N-(5-phenyl-1H-pyrazol-3-yl)acetamide]
103 | 98.3 | COc1cc(C)c(S(=O)(=O)N2CC[C@H]2COCC(=O)N2CCN(C3CCN(C)CC3)CC2)c(C)c1 [Example 135, (S)-2-((1-(4-methoxy-2,6-dimethylphenylsulfonyl)azetidin-2-yl)methoxy)-1-(4-(1-methylpiperidin-4-yl)piperazin-1-yl)ethanone]
66.4 | 101 | COc1cc(C)c(S(=O)(=O)N2CCCC2COCC(=O)NCCCCN2CCCC2)c(C)c1 (stereo not drawn) [Example 523, 2-((1-(4-methoxy-2,6-dimethylphenylsulfonyl)pyrrolidin-2-yl)methoxy)-N-(4-(pyrrolidin-1-yl)butyl)acetamide]
31.5 | 99.1 | O=C(COCC1CCCCN1S(=O)(=O)c1c(Cl)cc(Cl)cc1Cl)NCc1ccncc1 (stereo not drawn) [Example 394, N-(pyridin-4-ylmethyl)-2-((1-(2,4,6-trichlorophenylsulfonyl)piperidin-2-yl)methoxy)acetamide]
58.7 | 80.1 | COc1ccc(S(=O)(=O)N2c3ccccc3CC2COCC(=O)Nc2cccc(CN3CCCCC3)c2)cc1 (stereo not drawn) [Example 423, 2-((1-(4-methoxyphenylsulfonyl)indolin-2-yl)methoxy)-N-(3-(piperidin-1-ylmethyl)phenyl)acetamide]
28.1 | 81.4 | COc1cc(C)c(S(=O)(=O)N2CCCCC2COCC(=O)Nc2ccc(N3CCCC3)cc2)c(C)c1 (stereo not drawn) [Example 409, 2-((1-(4-methoxy-2,6-dimethylphenylsulfonyl)piperidin-2-yl)methoxy)-N-(4-(pyrrolidin-1-yl)phenyl)acetamide]
104 | 99 | COc1cc(C)c(S(=O)(=O)N2CCCC2COCC(=O)N2CCN(CCn3c(C)ccc3C)CC2)c(C)c1 (stereo not drawn) [Example 269, 1-(4-(2-(2,5-dimethyl-1H-pyrrol-1-yl)ethyl)piperazin-1-yl)-2-((1-(4-methoxy-2,6-dimethylphenylsulfonyl)pyrrolidin-2-yl)methoxy)ethanone]
56.6 | 103 | COc1cc(C)c(S(=O)(=O)N2CCCC2COCC(=O)N2CCN(c3ccc(C)c(C)c3)CC2)c(C)c1 (stereo not drawn) [Example 347, 1-(4-(3,4-dimethylphenyl)piperazin-1-yl)-2-((1-(4-methoxy-2,6-dimethylphenylsulfonyl)pyrrolidin-2-yl)methoxy)ethanone]
105 | 102 | COc1cc(C)c(S(=O)(=O)N2CCCCC2COCC(=O)N2CCN(CCN(C(C)C)C(C)C)CC2)c(C)c1 (stereo not drawn) [Example 341, 1-(4-(2-(diisopropylamino)ethyl)piperazin-1-yl)-2-((1-(4-methoxy-2,6-dimethylphenylsulfonyl)piperidin-2-yl)methoxy)ethanone]
63.4 | 98.8 | COc1cc(C)c(S(=O)(=O)N2CCCCC2COCC(=O)N2CCN(c3ccc(Cl)c(Cl)c3)CC2)c(C)c1 (stereo not drawn) [Example 378, 1-(4-(3,4-dichlorophenyl)piperazin-1-yl)-2-((1-(4-methoxy-2,6-dimethylphenylsulfonyl)piperidin-2-yl)methoxy)ethanone]
105 | 98.6 | COc1cc(C)c(S(=O)(=O)N2CCCCC2COCC(=O)N2CCN(Cc3ccc(Cl)cc3)CC2)c(C)c1 (stereo not drawn) [Example 384, 1-(4-(4-chlorobenzyl)piperazin-1-yl)-2-((1-(4-methoxy-2,6-dimethylphenylsulfonyl)piperidin-2-yl)methoxy)ethanone]
